{"source": "ChEMBL document CHEMBL1135722", "about": "“Cysteine derivatives as inhibitors for carboxypeptidase A: synthesis and structure-activity relationships” (J Med Chem, 2002)", "data": [{"molecular_target": "T1, Carboxypeptidase A1 (Bos taurus, UniProt P00730)", "T1 sequence (P00730 whole entry)": "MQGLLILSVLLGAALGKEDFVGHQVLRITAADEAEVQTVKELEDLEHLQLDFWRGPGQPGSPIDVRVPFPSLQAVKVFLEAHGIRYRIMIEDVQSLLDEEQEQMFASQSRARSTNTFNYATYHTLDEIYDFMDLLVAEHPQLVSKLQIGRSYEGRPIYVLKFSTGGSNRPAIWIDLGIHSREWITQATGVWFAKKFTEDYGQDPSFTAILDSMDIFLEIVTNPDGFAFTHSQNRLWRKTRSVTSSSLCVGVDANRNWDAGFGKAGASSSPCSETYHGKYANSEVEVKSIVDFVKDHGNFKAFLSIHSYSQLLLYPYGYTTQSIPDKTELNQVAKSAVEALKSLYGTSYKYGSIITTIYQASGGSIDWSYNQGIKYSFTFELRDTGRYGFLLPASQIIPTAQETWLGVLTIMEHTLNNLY", "experiment": "Inhibition of bovine carboxypeptidase A (CPA) using hippuryl-L-phenylalanine (Hipp-L-Phe) as a substrate.", "units": {"Ki": "nM"}, "values": [{"smiles": "O=C(O)C(CS)NCc1ccccc1", "note": "(stereo not given)", "Ki": 270}, {"smiles": "O=C(O)[C@H](CS)NCc1ccccc1", "Ki": 33000}, {"smiles": "CCNC(CS)C(=O)O", "note": "(stereo not given)", "Ki": 1400}, {"smiles": "CCCNC(CS)C(=O)O", "note": "(stereo not given)", "Ki": 5600}, {"smiles": "O=C(O)C(CS)NCC1CCCCC1", "note": "(stereo not given)", "Ki": 9400}, {"smiles": "N[C@H](CS)C(=O)O", "Ki": 2300}, {"smiles": "O=C(O)[C@@H](CS)NCCc1ccccc1", "Ki": 55}, {"smiles": "O=C(O)C(CS)CCCc1ccccc1", "note": "(stereo not given)", "Ki": 1350}, {"smiles": "CC(C)CNC(CS)C(=O)O", "note": "(stereo not given)", "Ki": 7500}, {"smiles": "O=C(O)[C@@H](CS)NC1CCCCC1", "Ki": 2900}, {"smiles": "O=C(O)C(CS)CCc1ccccc1", "note": "(stereo not given)", "Ki": 2100}, {"smiles": "O=C(O)[C@H](CS)NCCc1ccccc1", "Ki": 610}, {"smiles": "O=C(O)C(CS)NC1CCCCC1", "note": "(stereo not given)", "Ki": 9600}, {"smiles": "O=C(O)[C@H](CS)NC1CCCCC1", "Ki": 7900}, {"smiles": "COc1ccc(CNC(CS)C(=O)O)cc1", "note": "(stereo not given)", "Ki": 850}, {"smiles": "O=C(O)C(CS)NCc1cccc2ccccc12", "note": "(stereo not given)", "Ki": 810}, {"smiles": "O=C(O)C(CS)NCCCc1ccccc1", "note": "(stereo not given)", "Ki": 1300}, {"smiles": "O=C(O)C(CS)CCCCc1ccccc1", "note": "(stereo not given)", "Ki": 1300}, {"smiles": "CC(C)N[C@H](CS)C(=O)O", "Ki": 560}, {"smiles": "CC(C)CC(CS)C(=O)O", "note": "(stereo not given)", "Ki": 160}, {"smiles": "CNC(CS)C(=O)O", "note": "(stereo not given)", "Ki": 2400}, {"smiles": "O=C(O)[C@@H](CS)NCc1ccccc1", "Ki": 190}, {"smiles": "CC(C)NC(CS)C(=O)O", "note": "(stereo not given)", "Ki": 1100}, {"smiles": "CC(C)N[C@@H](CS)C(=O)O", "Ki": 2900}, {"smiles": "O=C(O)C(CS)NCc1ccc2ccccc2c1", "note": "(stereo not given)", "Ki": "> 500000"}, {"smiles": "O=C(O)C(CS)NCCc1ccccc1", "note": "(stereo not given)", "Ki": 65}, {"smiles": "CN(Cc1ccccc1)C(CS)C(=O)O", "note": "(stereo not given)", "Ki": 12000}, {"smiles": "O=C(O)C(CS)Nc1ccccc1", "note": "(stereo not given)", "Ki": 5500}, {"smiles": "O=C(O)C(CS)Cc1ccccc1", "note": "(stereo not given)", "Ki": 10}, {"smiles": "N[C@@H](CS)C(=O)O", "note": "[CYSTEINE]", "Ki": 350000}]}]}
